Measured values published in PubChem BioAssay AID1671276.

Molecular target: Ephrin type-B receptor 4 (Homo sapiens) (UniProt P54760)
Assay: EPHB4 kinase inhibitors, dose response, biochemical, Z'-LYTE, FRET, protease-coupled, direct format (AID 1671276)
Conditions: Z'-LYTE FRET peptide phosphorylation

Ephrin type-B receptor 4 (Homo sapiens), sequence (P54760 whole entry, looked up): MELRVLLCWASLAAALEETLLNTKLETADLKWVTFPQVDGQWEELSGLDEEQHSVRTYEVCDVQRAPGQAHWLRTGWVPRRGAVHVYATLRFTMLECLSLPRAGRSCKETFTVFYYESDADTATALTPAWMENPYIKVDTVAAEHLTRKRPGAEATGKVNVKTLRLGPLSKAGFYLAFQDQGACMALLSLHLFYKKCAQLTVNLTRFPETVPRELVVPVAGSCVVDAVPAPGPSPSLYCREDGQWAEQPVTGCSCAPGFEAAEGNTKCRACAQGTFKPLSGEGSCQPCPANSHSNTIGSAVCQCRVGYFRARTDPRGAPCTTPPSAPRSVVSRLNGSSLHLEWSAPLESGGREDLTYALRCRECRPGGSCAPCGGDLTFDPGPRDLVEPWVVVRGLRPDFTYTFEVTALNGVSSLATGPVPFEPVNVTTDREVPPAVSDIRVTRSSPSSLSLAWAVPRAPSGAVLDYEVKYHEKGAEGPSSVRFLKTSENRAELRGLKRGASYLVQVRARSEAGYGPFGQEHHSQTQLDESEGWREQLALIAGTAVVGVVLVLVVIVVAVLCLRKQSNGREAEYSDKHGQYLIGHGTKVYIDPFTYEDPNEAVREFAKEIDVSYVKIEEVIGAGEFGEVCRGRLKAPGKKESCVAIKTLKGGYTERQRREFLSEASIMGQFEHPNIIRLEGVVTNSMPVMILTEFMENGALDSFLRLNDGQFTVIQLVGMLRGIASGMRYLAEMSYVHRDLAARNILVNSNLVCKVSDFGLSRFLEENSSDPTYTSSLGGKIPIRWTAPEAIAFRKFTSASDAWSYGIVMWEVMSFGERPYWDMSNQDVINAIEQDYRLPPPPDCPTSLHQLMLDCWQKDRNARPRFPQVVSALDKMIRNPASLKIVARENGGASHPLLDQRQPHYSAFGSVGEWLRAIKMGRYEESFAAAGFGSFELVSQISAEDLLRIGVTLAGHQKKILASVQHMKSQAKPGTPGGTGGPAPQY

COc1cc2ncnc(Nc3cccc(Cl)c3)c2cc1OC
IC50: 1590 nM
